In the C3SDB collision cross section collection:
Values joined by “and” are separate entries in the source; they are usually repeats but may differ in a detail not shown here. Equal entries are not always repeated.

Conditions: instrument: DT, single field, calibrated with ESI Low Concentration Tuning Mix (Agilent)

Structure (SMILES) | collision cross section (N2) ([M+H]+) | collision cross section (N2) ([M+Na]+) | collision cross section (N2) ([M-H]-) | collision cross section (N2) ([M+Na-2H]-) | collision cross section (N2) ([M+K]+)
Nc1nc(=O)c2ncn([C@@H]3O[C@H](COP(=O)(O)O)[C@@H](O)[C@H]3O)c2[nH]1 [GUANOSINE MONOPHOSPHATE] | 179.5 Å² | 174.3 Å² | 169.4 Å² | 172.1 Å² | –
O=P(O)(O)O[C@H]1O[C@H](CO)[C@H](O)[C@H](O)[C@H]1O [GALACTOSE 1-PHOSPHATE] | – | 157.7 Å² | 148.2 Å² | – | 158.5 Å²
NC(=O)Cc1c[nH]c2ccccc12 [INDOLE-3-ACETAMIDE] | 137 Å² | 143.4 Å² | 135.5 Å² | – | –
O=P(O)(O)OC[C@H]1OC(O)[C@H](O)[C@@H]1O (stereo partly drawn) [D-RIBOSE 5-PHOSPHATE] | – | 150.5 Å² | 139.4 Å² | – | –
C[S+](CC[C@H](N)C(=O)[O-])C[C@H]1O[C@@H](n2cnc3c(N)ncnc32)[C@H](O)[C@@H]1O (stereo partly specified) [S-ADENOSYLMETHIONINE] | 185.7 Å² | – | – | – | –
OC[C@H]1OC(O)[C@H](O)[C@@H](O)[C@H]1O (stereo partly specified) [GALACTOSE] | – | 141.9 Å² | – | – | –
Cc1cc2nc[nH]c2cc1C [5,6-DIMETHYLBENZIMIDAZOLE] | 130.3 Å² | – | 129.9 Å² | – | –
CC(=O)NCCCCN [N-ACETYLPUTRESCINE] | 128.6 Å² | 134.5 Å² | – | – | –
O=C(O)CCCCCCCCCO [10-HYDROXYDECANOATE] | – | 151 Å² | 144.3 Å² | – | –
O=C(O)C(CO)OP(=O)(O)O (stereo unspecified) [2-PHOSPHOGLYCERATE] | 134.3 Å² | 141.9 Å² | 124.2 Å² | 133.1 Å² | –
O=c1cc[nH]c(=O)[nH]1 [URACIL] | – | – | 112.9 Å² | – | –
NCCc1c[nH]c2ccc(O)cc12 [SEROTONIN] | – | 146.9 Å² | – | – | –
CCCCCCCCCCCCCC(=O)OCC(COC(=O)CCCCCCCCCCCCC)OC(=O)CCCCCCCCCCCCC [GLYCERYL TRIMYRISTATE] | – | 291.4 Å² | – | – | –
Nc1ccn([C@H]2C[C@H](O)[C@@H](CO)O2)c(=O)n1 [DEOXYCYTIDINE] | – | 155.2 Å² | 148.7 Å² | – | 158.5 Å²
CCC(C)C(=O)C(=O)O (stereo unspecified) [3-METHYL-2-OXOVALERATE] | – | – | 127.1 Å² | – | –
O=C(O)CC(O)(CC(=O)O)C(=O)O [CITRATE] | – | 143.1 Å² | 127.1 Å² | – | –
O=C(O)CCCCCC(=O)O [6-CARBOXYHEXANOATE] | – | 140 Å² | 130.9 Å² | 134.4 Å² | –
NC(=O)c1ccc[n+]([C@@H]2O[C@H](COP(=O)(O)OP(=O)(O)OC[C@H]3O[C@@H](n4cnc5c(=O)nc[nH]c54)[C@H](O)[C@@H]3O)[C@@H](O)[C@H]2O)c1 [NICOTINAMIDE HYPOXANTHINE DINUCLEOTIDE] | 221.1 Å² | 229.7 Å² | 217.7 Å² | 217.2 Å² | –
C[C@H]1O[C@@H](n2cnc3c(N)ncnc32)[C@H](O)[C@@H]1O [5'-DEOXYADENOSINE] | 152.3 Å² and 158.4 Å² | 167.2 Å² | 154.8 Å² | – | –

More lines, now with the values ahead:

collision cross section (N2) ([M+H]+) | collision cross section (N2) ([M+Na]+) | collision cross section (N2) ([M-H]-) | collision cross section (N2) ([M+Na-2H]-) | collision cross section (N2) ([M+K]+) | Structure (SMILES)
199 Å² | 209.4 Å² | – | – | – | CCCCCCCCCCCC(=O)O[C@H](CC(=O)[O-])C[N+](C)(C)C [LAUROYLCARNITINE]
133.7 Å² | 144.1 Å² | 133.9 Å² | – | – | Cc1ncc(CO)c(CN)c1O [PYRIDOXAMINE]
– | 150.3 Å² | – | – | 151.4 Å² | CC(=O)N[C@@H]1[C@@H](O)[C@@H](O)[C@@H](CO)O[C@@H]1O [N-ACETYLGALACTOSAMINE]
145.5 Å² | – | 150.5 Å² | – | – | CC(C)=CCNc1ncnc2nc[nH]c12 [N6-(DELTA2-ISOPENTENYL)-ADENINE]
– | 145.4 Å² | – | – | – | CO[C@@H]1O[C@H](CO)[C@H](O)[C@H](O)[C@H]1O [METHYL GALACTOSIDE]
– | 134.7 Å² | – | – | – | CC(=O)N[C@@H](C)C(=O)O [N-ACETYLALANINE]
150.8 Å² | 154.7 Å² | 152.1 Å² | – | – | NCCC(=O)N[C@@H](Cc1cnc[nH]1)C(=O)O [CARNOSINE]
– | – | 174.8 Å² | – | – | CCCCC/C=C\C/C=C\C/C=C\CCCCC(=O)[O-] [GAMMA-LINOLENATE]
– | 145.3 Å² | 131.3 Å² | – | – | O=C(O)[C@H]1O[C@H](O)[C@H](O)[C@@H](O)[C@H]1O [GALACTURONATE]
– | – | 191.4 Å² | 182.7 Å² | – | Nc1nc(=O)c2ncn([C@H]3C[C@H](O)[C@@H](COP(=O)(O)OP(=O)(O)OP(=O)(O)O)O3)c2[nH]1 [DGTP]
– | – | 202.2 Å² and 202.3 Å² | – | – | C[C@H](CCC(=O)O)[C@H]1CC[C@H]2[C@@H]3CC[C@@H]4C[C@H](O)CC[C@]4(C)[C@H]3C[C@H](O)[C@]12C [DEOXYCHOLATE]
124.6 Å² | – | – | – | – | COC(=O)CCCN [METHYL 4-AMINOBUTYRATE]
– | – | 148.1 Å² | – | – | N[C@@H]1[C@@H](O)[C@H](O)[C@@H](COP(=O)(O)O)O[C@@H]1O [GLUCOSAMINE 6-PHOSPHATE]
– | 176 Å² | 177.9 Å² | – | 177.6 Å² | OC[C@H]1O[C@H](OC[C@H]2OC(O)(CO)[C@@H](O)[C@@H]2O)[C@H](O)[C@@H](O)[C@@H]1O (stereo partly specified) [PALATINOSE]
– | 133.4 Å² | 127.2 Å² | – | – | CC(=O)N[C@@H](CO)C(=O)O [N-ACETYLSERINE]
133.6 Å² | – | 132.6 Å² | – | – | OCCc1c[nH]c2ccccc12 [INDOLE-3-ETHANOL]
125.4 Å² | – | 132.6 Å² | – | – | NCCS(=O)O [HYPOTAURINE]
– | – | 121.5 Å² | – | – | O=C([O-])c1cc(=O)[nH]c(=O)[nH]1 [OROTATE]
182.9 Å² | 189 Å² | 186.4 Å² | 180.3 Å² | – | Nc1ncnc2c1ncn2[C@@H]1O[C@H](CSCC[C@H](N)C(=O)O)[C@@H](O)[C@H]1O [S-ADENOSYLHOMOCYSTEINE]
130.4 Å² | – | – | – | – | CC1C(=O)Nc2ccccc21 (stereo unspecified) [3-METHYL-2-OXINDOLE]
198.5 Å² | 189.4 Å² | 188.2 Å² | – | – | N[C@@H](Cc1cc(I)c(Oc2ccc(O)cc2)c(I)c1)C(=O)O [3,5-DIIODO-L-THYRONINE]
149.6 Å² | 153.5 Å² | 150.5 Å² | – | – | CC(=O)NCCc1c[nH]c2ccc(O)cc12 [N-ACETYLSEROTONIN]
